Data as given in patent US8026255B2, “Substituted piperidines as somatostatin receptor subtype 5 (SSTR5) antagonists” (Hoffman-La Roche Inc., priority 2006, dated 2011).
pKi: −log10 of the molar value.

Target: T1, human subtype 5 somatostatin receptor (Homo sapiens, UniProt P35346)
T1 construct: host or cells: CHO cells, stably transfected; membranes prepared from them
Test: SSTR5 radioligand binding assay (membranes of transfected CHO cells, 125I-labeled 11-Tyr somatostatin-14 tracer)
Conditions: CHO cell membranes, Ki calculated from IC50 by Cheng-Prussoff equation
Experimental: A CHO cell line stably transfected with a plasmid encoding the human subtype 5 somatostatin receptor (GenBank accession number D16827) was obtained from Euroscreen. Cells were cultured and used for binding and functional assays.
Membranes of these cells were prepared by sonication in the presence of protease inhibitors and subsequent fractionating centrifugation. The protein concentration in the membrane preparation was determined using a commercial kit (BCA kit, Pierce, USA). Membranes were stored at −80° C. until use. After thawing, membranes were diluted in assay buffer (50 mM Tris-HCl at pH 7.4, 5 mM MgCl2 and 0.20% BSA) and subjected to dounce homogenization.
For binding studies, 0.1 mL membrane suspension, corresponding to app. 6×10^−15 mol receptor, was incubated for 1 h at room temperature with 0.05 nM ^125I-labeled tracer (11-Tyr somatostatin-14, Perkin-Elmer) and either test compounds in varying concentrations or, for the determination of non-specific binding, 0.001 mM non-labeled somatostatin-14. The incubation was stopped by filtration through GF/B glassfiber filters and washing with ice-cold wash buffer (50 mM Tris-HCl at pH 7.4). The bound radioactivity was measured after application of a scintillation cocktail (Microscint 40) and expressed as disintegrations per minute (dpm).
The receptor concentration was determined in a prior saturation experiment where a fixed, arbitrary amount of membranes was incubated with a concentration range of radio-labeled tracer. This allows estimating the total number of specific binding sites per amount of protein (i.e., Bmax), typically between 1 and 5 pmol/mg.
The concentration of the test compound required to result in half maximal inhibition of binding of the radio-labeled tracer (IC50) was estimated from a concentration-versus-dpm graph. The binding affinity (Ki) was calculated from the IC50 by applying the Cheng-Prussoff equation for single binding sites.

T1 sequence (P35346 whole entry): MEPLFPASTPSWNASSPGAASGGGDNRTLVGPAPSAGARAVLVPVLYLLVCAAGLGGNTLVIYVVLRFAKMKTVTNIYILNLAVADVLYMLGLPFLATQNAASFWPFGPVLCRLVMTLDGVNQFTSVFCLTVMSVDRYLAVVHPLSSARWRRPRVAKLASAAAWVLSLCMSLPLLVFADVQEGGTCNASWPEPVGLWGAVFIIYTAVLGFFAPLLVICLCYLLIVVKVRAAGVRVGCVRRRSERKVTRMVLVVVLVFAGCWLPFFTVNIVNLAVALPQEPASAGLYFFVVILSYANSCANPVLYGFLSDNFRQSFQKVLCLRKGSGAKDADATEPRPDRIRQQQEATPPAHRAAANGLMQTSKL

SMILES	pKi
CCOc1cc(CN2CCC(Nc3nc(C)c(-c4ccccc4)cc3C#N)CC2)ccc1OC [Example 24, 2-[1-(3-ethoxy-4-methoxy-benzyl)-piperidin-4-ylamino]-6-methyl-5-phenyl-nicotinonitrile]	6.10
CCOc1cc(CN2CCC(Nc3ccc4ccccc4n3)CC2)cc(OCC)c1F [Example 103, [1-(3,5-diethoxy-4-fluoro-benzyl)-piperidin-4-yl]-quinolin-2-yl-amine]	8.15
CCOc1cc(CN2CCC(Nc3cnc(C(N)=O)cn3)CC2)ccc1Cl [Example 205, 5-[1-(4-Chloro-3-ethoxy-benzyl)-piperidin-4-ylamino]-pyrazine-2-carboxylic acid amide]	7.07
